# Test results as given in patent US11209421B2, “Cytidine deaminase expression level in cancer as a new therapeutic target” (CENTRE NATIONAL DE LA RECHERCHE SCIENTIFIQUE, priority 2016, dated 2021).
# Like-named read-outs stand apart in the source and are kept apart here.
# Legend:
# [1] = system: breast cancer cell lines (MDA-MB-231, HCC-1954, MCF-7, BT-20) and IGROV-1
# Description: D, Cell viability, as assessed in MTT assays on breast cancer cell lines (MDA-MB-231, HCC-1954, MCF-7, BT-20) and an ovarian cell cancer line (IGROV-1) after 96 h of treatment with 5-Aza-dC. Error bars represent the mean±SD of 3 independent experiments for IGROV-1 and 2 experiments for the other cell lines. […] The dashed lines indicate the 5-Aza-dC concentrations used in this study.
# Cell viability was carried out with 3-(4,5-dimethyl-2-thiazolyl)-2,5 diphenyl-2H-tetrazolium bromide (MTT-Life Technologies) in 96-well microplates.
# [2] = system: CDA protein; assay: Western blot analysis of the induction of CDA expression; type: cell-based, human; conditions: HCC-1954 and IGROV-1, 1 μM 5-Aza-dC for 96 h
# Description: For western blotting, cells were harvested by centrifugation and lysed in 8 M urea, 50 mM Tris-HCl, pH 7.5 and 150 mM β-mercaptoethanol buffer supplemented with protease inhibitor (ThermoScientific). They were then sonicated and heated. Protein concentration was estimated with the BCA kit (Pierce) and the equivalent of 20 μg or protein per cell lysate was run on a 4-12% Bis-Tris pre-cast gel (Life Technologies). The proteins were then transferred to PVDF membranes, which were probed with the appropriate antibody. Protein bands were visualized with a CCD camera (BioRad).
# [3] = system: CDA mRNA; assay: RT-qPCR analysis of the induction of CDA expression; type: cell-based, human; conditions: 96 hours, 2.5 μM 5-Aza-dC
# Description: For evaluation of the induction of CDA expression, RNA was isolated from cell lines continuously treated with 1 or 2.5 μM of 5-Aza-2′-deoxycytidine (5-Aza-dC—Sigma Aldrich) for 96 hours.
# The procedure for real-time PCR (RT-qPCR) was as described by Gemble et al. (cf. Reference 19). In brief, total RNA was extracted from PDX tissues and from cell lines with the RNeasy Mini Kit (Qiagen). Reverse transcription was performed on 1 μg of RNA with the GoScript enzyme (Promega). The cDNA obtained was used at a dilution of 1/10 for real-time PCR with the SYBER Green supermix reagent (Biorad) in a Biorad CFX96 machine. Each sample was run in triplicate. Relative expression was determined by the 2^−ΔΔCt method. GAPDH and TBP were used as internal controls.
# [4] = system: MDA-MB-231 xenograft; conditions: cited from earlier work
# [5] = system: MDA-MB-468 xenograft; conditions: cited from earlier work; for median tumor growth inhibition: compared to control
# [6] = system: CDA-depleted HeLa cells; assay: Images of CDA-depleted HeLa cells 24 h after Dasatinib treatment; type: cell-based, human; conditions: 24 h after 0.5 or 1 μM
# [7] = system: IGROV-1 cells; assay: MTT cell viability, IGROV-1; type: cell-based, human; conditions: pretreatment 96 h with 1 μM 5-Aza-dC versus untreated, then gemcitabine 72 hours
# Description: (§1) Cell viability was carried out with 3-(4,5-dimethyl-2-thiazolyl)-2,5 diphenyl-2H-tetrazolium bromide (MTT-Life Technologies) in 96-well microplates. The functionality of CDA was assessed by plating HCC-1954 and IGROV-1 cells at densities of 2000 and 3000 cells/well, respectively, on the day before pretreatment and at a density of 800 cells/well for control conditions. Cells were then left untreated or subjected to pretreatment with 1 μM 5-Aza-dC for 96 h. The cells were washed twice with PBS buffer, placed in fresh medium and incubated for 72 hours in the presence of various concentrations of gemcitabine, from 0.001 to 1 μM (Sigma Aldrich). The data were normalized to corresponding controls, for each condition.
# [8] = system: HCC-1954 cells; assay: MTT cell viability, HCC-1954 (gemcitabine after 5-Aza-dC pretreatment); type: cell-based, human; conditions: pretreatment 96 h with 1 μM 5-Aza-dC versus untreated, then gemcitabine 72 hours
# Description: as §1
# [9] = MDA-MB-231 xenograft mice, 70 mg/kg
compound,measurement,setting,value
"Nc1ncn([C@H]2C[C@H](O)[C@@H](CO)O2)c(=O)n1 [5-Aza-dC, 5-Aza-2′-deoxycytidine]","toxicity (cell viability, MTT)",[1],without major toxicity
same,induction of CDA protein production,[2],strongly induced the production of a functional CDA protein
same,induction of CDA mRNA levels,[3]; 7 CDA-deficient cell lines,up to 1000 fold
same,induction of CDA transcript levels,"[3]; MDA-MB-231, HOP-92, HCC-1143 and HCC-1937 control cell lines with constitutively high CDA",two-fold
Cc1c(F)c(N)c2c(=O)cc(-c3ccc(NC(=O)[C@@H](N)CCCCN)c(F)c3)oc2c1F [AFP464],tolerance,"[4]; MDA-MB-231 xenograft mice, 35 mg/kg",well tolerated
same,body weight loss,[4]; [9],up to 15%
same,death of mice during the course of treatment,[4]; [9],1 of 7
same,antitumor activity (inhibition),"[4]; MDA-MB-231 xenograft, AFP464 alone, 35 or 70 mg/kg",0%
same,tolerance,"[5]; MDA-MB-468 xenograft mice, 35 and 50 mg/kg",well tolerated
same,tumor growth,"[5]; MDA-MB-468 xenograft, 35 or 50 mg/kg i.v., compared to vehicle control",statistically significantly delayed tumor growth
same,median tumor growth inhibition,"[5]; MDA-MB-468 xenograft, after one cycle of treatment",57%
same,median tumor growth inhibition,"[5]; MDA-MB-468 xenograft, after two cycles of treatment",54%
"Cc1nc(Nc2ncc(C(=O)Nc3c(C)cccc3Cl)s2)cc(N2CCN(CCO)CC2)n1 [NSC 759877, Dasatinib]",effect on cell morphology (images),[6],no effect
Nc1ccn([C@@H]2O[C@H](CO)[C@@H](O)C2(F)F)c(=O)n1 [gemcitabine],"gemcitabine resistance (cell survival, MTT)",[7],significant increase in gemcitabine resistance
same,"gemcitabine resistance (cell survival, MTT)",[8],significant increase in gemcitabine resistance
